Earlier results, collected in patent publication US20230022721A1, “COMPOSITIONS AND METHODS FOR INHIBITION AND INTERRUPTION OF BIOFILM FORMATION” (DENTSPLY SIRONA Inc., priority 2016, published 2023).

Experiments:
[1] = tested on: Fungi: C. albicans; A. niger
[2] = tested on: Bacteria: S. aureus; P. aeruginosa; E. coli
[3] = tested on: Bacteria: Gram-positive bacteria; details: vs model compound
[4] = tested on: Bacteria: P. aeruginosa; Staphylococcus spp.
[5] = tested on: Bacteria: E. coli; S. aureus; S. typhimurium

## Cc1cc(NS(=O)(=O)c2ccc(N3C(=O)C=CC3=O)cc2)no1
[1]
  Comparison of Polymers with Monomer: The homopolymer is more effective than the monomer at all concentrations.^[6]

## C=C(C)C(=O)OCC(O)CSc1nnc(C)s1 (centres unmarked)
[2]
  Comparison of Polymers with Monomer: The homopolymer is more effective than the monomer.^[8]

## C=Cc1ccc(C[S+]2CCCC2)cc1
[3]
  Comparison of Polymers with Monomer: The homopolymer is more effective than the corresponding model compound (p- ethylbenzyl tetramethylene sulforium tetrafluoroborate).

## C=CC(=O)Oc1cc(Cl)ccc1Oc1ccc(Cl)cc1Cl
[4]
  Comparison of Polymers with Monomer: The homopolymer and copolymers with methyl methacrylate, styrene are all less effective than the monomer.^[10]

## C=CC(=O)Oc1ccc(Cl)c2cccnc12
[5]
  Comparison of Polymers with Monomer: The homopolymer and the copolymers with acrylamide are both less effective than the monomer.^[13]
